In PMC7308888, “Development of a cell-free split-luciferase biochemical assay as a tool for screening for inhibitors of challenging protein-protein interaction targets” (Wellcome Open Research, 2020):

Molecular target: T1, KRAS-G12C (Homo sapiens, UniProt P01116, G12C)
T1 construct: full-length KRAS-G12C, Sm-BiT fused at the N-terminus; with p110α RBD (aa133-314), LgBiT fusion
Test: NanoBiT split-luciferase KRAS/RBDα interaction assay in HEK293 cell lysate
Assay type: biochemical

Cn1cnc(Cn2ccc3ccc(CNCc4[nH]c5ccccc5c4[C@H]4NC(=O)c5ccc(O)cc54)cc32)c1 [BI-2852]
NanoBiT split-luciferase KRAS/RBDα interaction assay in HEK293 cell lysate: ~ 1 µM
